Common to all, as to format: cell-based, mouse
Experiment [1] has as its system Trx1 and Trx2. Nature of the experiment: Trx oxidation state (Redox Western). To be noted: GL261, 1 µM, 24 h. As for the experimental part:
The redox state of Trx1 and Trx2 was evaluated by the quantification of the number of reduced -SH groups (Free -SH), according to the Protein Electrophoretic Mobility Shift Assay ([Bersani et al., 2002]; [Branco et al., 2017]).
Briefly, after exposure to the TmHg and EtHg for 24 h, cell pellets were resuspended in Sample Solution (SS - Tris 50 mM, Urea 8 M, pH 8.3) containing 30 mM of iodoacetic acid (IAA; Sigma) and incubated at 37°C for 30 min to alkylate free thiols. This was followed by centrifugation at 13,000 g for 10 min, and the resulting supernatant was washed 3 times with an acetone/1 M HCl mix (98:2 v/v), followed by centrifugation at 13,000 g for 5 min. After evaporation of the acetone mixture, the resulting pellet was incubated at 37°C for 30 min in a SS solution containing 5 mM of DTT to reduce thiols oxidized by TmHg and EtHg. Posteriorly, these thiols were alkylated with SS containing 10 mM iodoacetamide (IAM; Sigma) at 37°C for 30 min.
Next, the samples were loaded onto a Urea-PAGE gel (stacking gel: 4% acrylamide; run gel: 12% acrylamide; 8 M Urea) and run at 10 mA. After 2 h, the proteins in the gel were transferred to a nitrocellulose membrane blocked with skimmed milk and incubated with respective antibodies - Trx1 rabbit polyclonal IgG (ATRX8, IMCO Corp.), Trx2 rabbit polyclonal IgG (sc-50335, Sta. Cruz) and mouse anti-rabbit IgG-HRP (sc-2357, Sta. Cruz). […]

Experiment [2] has as its system GL261 cells. Put plainly: ROS production (H2DCFDA assay). To be noted: GL261, 3 h exposure, 0.5-5 µM. As for the experimental part: The assessment of general ROS production was based on the 2′,7′-dichlorodihydrofluorescein diacetate (H2DCFDA) assay ([Huang et al., 2014]).
Cells (8 × 10^4) were plated in black 96-well microplates and then incubated at 37°C for 24 h. Afterwards, the medium was removed, the cells were washed twice with PBS 1x, and culture media with DHCF-DA ([…]) was added to each well followed by a 40 min incubation at 37°C. After the incubation period, the DHCF-DA containing media was removed and the wells were washed twice with PBS 1x before being replenished with fresh medium. This was followed by exposure of cells to Hg compounds (EtHg and TmHg 0.5; 1, 2.5; and 5 µM) for 3 h using 1 mM H2O2 as a positive control. The fluorescence signal was read in a microplate reader (Zenyth 3100, Anthos Labtec Instruments) using 495 nm as the excitation wavelength and 529 nm as the emission wavelength.

The test system of experiment [3] is GL261 cells. Put plainly: Guava ViaCount assay, apoptotic cells. The conditions noted are these: GL261, 24 and 48 h exposure. As to the method:
The ViaCount Assay was used to distinguish viable and non-viable cells based on the differential permeability of two dyes in the Guava ViaCount Reagent. The membrane-permeant dye stains all nucleated cells, leaving the cellular debris unstained, while the membrane-impermeant dye brightly stains damaged cells, thus indicating apoptotic and dying cells. GL261 cells (6 × 10^4) were seeded for 24 h in 24-well plates and thereafter were exposed to the TmHg and EtHg for 24 and 48 h. Following treatment, cells were collected from plates along with cell culture supernatants and centrifuged for 5 min (650 g). Supernatants were discarded and the cells were resuspended in phosphate-buffered saline (PBS) containing 2% FBS. Subsequently, 15 μL of cell suspension were mixed with 135 μL of Guava ViaCount reagent and incubated for 5 min at room temperature. Sample acquisition and data analysis were performed with the Guava easyCyte 5HT flow cytometer (GuavaTechnologies, Inc., Hayward, CA, United States) using the ViaCount software module.

The subject of experiment [4] is Prx2. Nature of the experiment: Prx2 redox state (dimer/monomer, non-reducing Western blot). To be noted: GL261, 1 and 2 μM, 24 h. As to the method:
To evaluate the Prx2 redox state, cells were lysed in lysis buffer containing NEM (N-ethylmaleimide; Sigma) and, subsequently, the soluble protein fraction was separated by non-reducing SDS-PAGE electrophoresis, followed by transfer to a nitrocellulose membrane, after blockage with milk and incubation with the respective antibodies–Prx2 mouse monoclonal IgG (sc-515428, Sta. Cruz) and goat anti-mouse IgG-HRP (sc-2005, Sta. Cruz)—as previously described ([Brown et al., 2008]). The ratio between the bands of the Prx2 dimer and monomer was quantified for each sample using the Bio-Rad Quantity One software.
(Immunoblotting shows a protein as a band on a membrane.)

Data on 2 molecules can be found in paper PMC9260667, “Thioredoxin Reductase Inhibitors as Potential Antitumors: Mercury Compounds Efficacy in Glioma Cells” (Frontiers in Molecular Biosciences, 2022).

For `C[CH2][Hg][S]c1ccccc1C(=O)[O-].[Na+]` [TmHg, thimerosal], the “redox states of Trx1 and Trx2” value in experiment [1] is given as “increasing the oxidation of Cys residues in both isoforms”. Also, in experiment [2], the ROS production entry is “concentration-dependent increase”. Also, the “increase in number of apoptotic cells compared to control” value in experiment [3] is over 50%. Also, in experiment [4], the “increase in Prx2 dimerization relative to non-treated control” value was 20–40%.
With `C[CH2][Hg]` [EtHg, ethylmercury], the “redox states of Trx1 and Trx2” value in experiment [1] is listed as “increasing the oxidation of Cys residues in both isoforms”. The ROS production entry in experiment [2] was “concentration-dependent increase”. Moreover, in experiment [3], the “increase in number of apoptotic cells compared to control” value was over 50%. The “increase in Prx2 dimerization relative to non-treated control” value in experiment [4] is listed as 20–40%.
